The results in this text go back to ChEMBL document CHEMBL3507680, “University of Dundee, Gates Library screen for HepG2 cell viability”.

The structures appear in SMILES notation.

The nature of this data set: Human HepG2 cell viability assay in 384 well format. It is filed as toxicity, cell-based. The settings on record: HepG2 cells, read-out: Inhibition. The arrangement: dose 125 nL, time 70.5 hour; cytotoxicity at 70.5 h: concentration not given beside the values.
Take `CC(=O)N(C)c1nc(Cn2nnnc2C(C)C)cs1`: the cytotoxicity at 70.5 h is -6.77%.

In the case of `O=C(NCC1CCN(CCc2ccccc2)C1)c1cc(Cl)c[nH]1` (stereo not drawn), the cytotoxicity at 70.5 h amounted to 2.19%. Regarding `CCn1nc(C)cc1C(=O)NCc1nc(C)no1`, the cytotoxicity at 70.5 h is -6.53%.

Take `O=C(NCc1nc2cc(F)ccc2[nH]1)c1ccc[nH]1`: the cytotoxicity at 70.5 h came to 17.9%.

Take `CN(CC(F)(F)F)C(=O)CNC(=O)N1CCC(N2CCCC2)C1` (stereo not drawn): the cytotoxicity at 70.5 h was -9.53%. For `CCCc1nnnn1CC(=O)NCc1cccc(C)c1` the value was -3.35%. For `CCc1cnccc1C(=O)NC1CCN(Cc2ccccc2F)CC1` the value was -6.35%. For `CC1COCCN1Cc1nc(C(C)(C)C)no1` (stereo not drawn) the value was -6.43%.

Consider `CCc1nnc(CN(C)CC2CCCCC2)o1`, for which the cytotoxicity at 70.5 h was -0.472%. The figure for `COCC(O)CN(C)c1ccnc2cc(Br)ccc12` (stereo not drawn) is -6.19%; for `Cc1nn(C)cc1CN(C)Cc1cc2c(cc1OC(F)F)OCO2` it is -7.7%; for `O=S(=O)(c1ccccc1)N1CCCN(CCCn2ccnc2)CC1` it is -10.3%. The figure for `CCC(C)CNc1ccc2oc(COC)nc2c1` (stereo not drawn) is 42.8%; for `NS(=O)(=O)c1ccc(NC(=O)CSc2ccc3c(c2)CCC3)cc1` it is -2.39%. The figure for `c1ccc(COC2CCN(c3cncc(-n4cccn4)n3)CC2)cc1` is -9.06%; for `CCNC(=O)N(C)Cc1ccc(SC)c(OC)c1` it is -7.42%; for `CC(=O)c1cccc(NC(=O)CN2CCCCC2C2OCCO2)c1` (stereo not drawn) it is -1.12%.

Take `Cn1cnnc1C1CCN(c2cncc(-n3cccn3)n2)CC1`: the cytotoxicity at 70.5 h stood at 1.11%. The figure for `COc1ccc(CNC2CCN(CCc3ccncc3)CC2)cc1O` is -6.38%; for `Cc1ccc(C(CNCc2ccncc2)N2CCOCC2)s1` (stereo not drawn) it is 18.9%.

In the case of `O=C(C1SCCc2sccc21)N1CCN(CCO)CC1` (stereo not drawn), the cytotoxicity at 70.5 h was -2.81%. On to `O=C(C1SCCc2sccc21)N1CCC(O)CC1` (stereo not drawn), for which the cytotoxicity at 70.5 h is 1.7%. The figure for `O=C(CN1CCCCC1C1OCCO1)Nc1ccc(F)c(F)c1` (stereo not drawn) is -2.55%. For `COC(=O)CCNC(=O)C1CC(=O)N(C2CCCC2)C1` (stereo not drawn) the value was 0.402%; for `CC(C)n1c(C2CCCN(CCS(C)(=O)=O)C2)nc2ccccc21` (stereo not drawn), -0.395%; for `Cc1ccc(CNC2CCN(CCc3ccncc3)CC2)cc1C`, 1.32%. For `CN(CC(=O)NCc1ccccn1)CC1CCCN1c1cccnn1` (stereo not drawn) the value was 0.56%; for `Cc1ccc(C(CNCc2cnn(C(C)C)c2)N2CCOCC2)s1` (stereo not drawn), -0.62%; for `COc1ccc(C(=O)N(C)Cc2cccc(C#N)c2)c(OC)c1OC`, -5.18%. For `CCCn1nc2c(cc1=O)CN(Cc1nc(CCOC)no1)CC2`, the cytotoxicity at 70.5 h was -3.53%. `CCN(CC)C(=O)Nc1cc2c(cc1SC)OCCO2`: the cytotoxicity at 70.5 h is -6.83%. For the compound `Cc1cnn(C2CN(Cc3ccc4c(c3)OCCO4)C2)c1`, the cytotoxicity at 70.5 h is -10.6%.

Consider `FC(F)(F)C1CCCn2c(CNCc3ccsc3)nnc21` (stereo not drawn), for which the cytotoxicity at 70.5 h is -9.55%. The figure for `O=c1oc(-c2cccs2)nn1CC(O)c1ccccc1` (stereo not drawn) is -13.3%; for `CCOc1ncccc1CNC(=O)N1CCCC1c1ccncc1` (stereo not drawn) it is -8.99%.

Regarding `CCNC(=O)NC(=O)CSC(C)c1ccccc1F` (stereo not drawn), the cytotoxicity at 70.5 h was -9.82%. The figure for `CCOc1cccc(C(C)NCc2ccc(OC)c(OC)c2OC)c1` (stereo not drawn) is 6.82%; for `CCNC(=O)NC(=O)CSC(C)c1c(F)cccc1F` (stereo not drawn) it is 10.3%. For `CCN(CC)C(=O)CCNC(=O)Cc1nc(-c2ccco2)oc1C`, the cytotoxicity at 70.5 h was determined as 4.78%.

As to `N#Cc1cn(CC(=O)NC2CC2)c2ccc(Br)cc2c1=O`, the cytotoxicity at 70.5 h was -7.46%. The figure for `CCN(CC(=O)NC)C(=O)Cc1nc(-c2ccco2)oc1C` is -7.15%; for `CCc1nc(CCNC(=O)Nc2ccc(C(=O)NC)cc2C)cs1` it is 13.7%. For `O=C(O)c1ccn(-c2ccccc2NS(=O)(=O)c2ccccc2)n1`, the cytotoxicity at 70.5 h is -0.995%. The figure for `Cc1cc(S(=O)(=O)N2CCCc3cc(F)cc(F)c32)sc1C(=O)O` is 11.1%; for `O=C(NC1(c2nnn(Cc3ccncc3)n2)CCCC1)c1ccccc1` it is -1.85%. The figure for `CSC(C)(C)CNC(=O)NC1CCSCC1` is -6.55%. For `Cc1n[nH]c(C2CN(CC(=O)NCc3ccco3)CCO2)n1` (stereo not drawn) the value was 15.9%; for `CSCC(=O)N1CCCC1c1noc(C2CC2)n1` (stereo not drawn), -4.73%; for `O=C(NCCCn1ccnc1)N1CCCC1c1ccncc1` (stereo not drawn), -1.54%.

On to `CC(C)(C)OC(=O)NC(C)(C)c1noc(CN2CCCCC2)n1`, for which the cytotoxicity at 70.5 h was -3.07%. For `O=C(CCNS(=O)(=O)c1ccccc1)NCc1ccoc1` the value was -9.84%; for `CCS(=O)(=O)c1ccc(N2CCC(NC(C)=O)CC2)cc1`, -5.9%; for `COC1CCN(C(=O)c2c(Cl)c3ccccc3n2C)CC1`, -9.88%. For `CCNC(=O)c1cnc(Cc2ccc(F)cc2)s1` the value was -6.25%; for `COc1cccc(S(=O)(=O)CCN2CCC3(CC2)OCCO3)c1`, -18.5%. The figure for `CCCC(=O)NCc1cc(Br)c(OC)c(OC)c1` is -6.96%; for `Cc1nc2c(c(C)c1CC(=O)Nc1ccc(Cl)cc1)c(=O)[nH]n2C` it is -3.48%; for `c1cnn(CC2CCCCN2c2ncnc3sccc23)c1` (stereo not drawn) it is -6.33%.

As to `Cc1cnn(CCNCc2ccc(OCc3csc(C)n3)cc2)c1`, the cytotoxicity at 70.5 h is -4.31%.

Turning to `O=C(NCCc1cccc(O)c1)NC1CCN(c2ccccc2)C1=O` (stereo not drawn), the cytotoxicity at 70.5 h worked out at 1.16%.

On to `O=C(O)c1ccc(F)c(S(=O)(=O)Nc2ccc(-n3cccn3)c(Cl)c2)c1`, for which the cytotoxicity at 70.5 h was -6.87%. The figure for `CCCC(NC(=O)c1ccc(OC)cc1F)c1nnn[nH]1` (stereo not drawn) is -3.7%; for `CCCC(NC(=O)c1cc(C)ccc1C)c1nnn[nH]1` (stereo not drawn) it is 13.6%. The figure for `COCC(=O)N1CCC2(CC1)CN(c1ccsc1)C(=O)CO2` is -8.62%. In the case of `O=C(c1ccsc1)N1CCN2C[C@H](OCc3ccccn3)C[C@H]2C1`, the cytotoxicity at 70.5 h was -10.1%. For `Cc1cccc(CN2CCn3c(C(=O)N(C)C)cnc3C2)c1` the value was -4.36%; for `O=C(C1CCOCC1)N1CCC2(CC1)CN(c1ccsc1)C(=O)CO2`, -6.23%; for `Cc1noc(C)c1CN1C[C@@H]2COC[C@@H](CC(=O)N3CCCO3)[C@@H]2C1`, -6.49%.

As for `Cc1noc(C)c1CN1C[C@@H]2COC[C@H](C(=O)N3CCCO3)[C@@H]2C1`, the cytotoxicity at 70.5 h turned out to be 31.1%. As for `O=C(c1ccco1)N1CCO[C@@H]2CN(c3ccccc3)CC[C@@H]2C1`, the cytotoxicity at 70.5 h worked out at 29.2%. For `Cn1cccc1C(=O)NCc1cn2c(n1)CN(CC1CCOC1)CC2` (stereo not drawn) the value was 17.2%; for `O=C([C@H]1CN(Cc2nccs2)C[C@H]2OCC[C@@H]12)N1CCCC1`, 10.2%; for `Cc1csc(CN2C[C@@H]3COC[C@]3(C(=O)NCc3ccco3)C2)n1`, 14.6%. On to `CC(=O)NCC(=O)N1CCN(C)c2ncccc2C1`, for which the cytotoxicity at 70.5 h is -11.3%. Consider `Cc1cc(C(=O)N2CC[C@H]3[C@@H]2CCC(=O)N3c2ccccc2)no1`, for which the cytotoxicity at 70.5 h is -8.05%.

`CC(C)CCN1CCc2nc(N3CCOCC3)nc(NC(C)C)c2C1`: the cytotoxicity at 70.5 h is -16.5%. The figure for `c1cc(CN2CCCn3nnc(COCC4CC4)c3C2)ccn1` is -15.6%; for `CN(C)C(=O)CN1CCC2(CCCN(Cc3ccsc3)C2)C1=O` (stereo not drawn) it is -15.6%; for `CN(C)C(=O)c1cnc2n1CCN(Cc1cccc(C#N)c1)C2` it is -7.44%. The figure for `COCCN1C(=O)CC[C@@H]2[C@H]1CCN2Cc1cccc(C#N)c1` is -11.2%.

Regarding `Cc1cc(CN2C[C@@H]3COC[C@@H](C(=O)N4CCCCO4)[C@@H]3C2)no1`, the cytotoxicity at 70.5 h was 20.1%. The figure for `CN(C)[C@@H]1CCN(C(=O)c2cccn2C)[C@H]1Cc1cnn(C)c1` is -11.3%; for `Cc1cc(CN2C[C@@H]3COC[C@H](C(=O)N4CCCCO4)[C@@H]3C2)no1` it is -11.3%. `CN(C)[C@@H]1CCN(C(=O)c2cccc(C#N)c2)[C@H]1Cc1cnn(C)c1`: the cytotoxicity at 70.5 h was -8.57%. The figure for `Cc1ccccc1C(=O)N1CC[C@@H](N(C)C)[C@@H]1Cc1cnn(C)c1` is 25.4%. For `CCN1C[C@H]2[C@@H](C1)N(S(=O)(=O)c1ccccc1F)CC[C@H]2OC` the value was -3.89%; for `Cc1noc(C)c1CN1C[C@@H]2COC[C@@H](CC(=O)N3CCCCO3)[C@@H]2C1`, -6.43%; for `Cc1occc1C(=O)N1CCO[C@H]2[C@H](Oc3cccnc3)CC[C@@H]21`, 14.6%.

On to `O=C(O)CCC(=O)N1CCN(CC2CC2)c2ncccc2C1`, for which the cytotoxicity at 70.5 h turned out to be 22.2%. The figure for `O=C(Cc1ccsc1)N1CCN(CC2CC2)c2ncccc2C1` is -14%; for `CN(C)C(=O)CN1CCC2(CCCN(Cc3cccs3)C2)C1=O` (stereo not drawn) it is -12.9%.

In the case of `O=C(c1ccc(F)cc1)N1CCN2C[C@H](OCc3cccnc3)C[C@H]2C1`, the cytotoxicity at 70.5 h was -11%. The figure for `CO[C@H]1CCN(S(=O)(=O)c2cccnc2)[C@@H]2CN(CC3CC3)C[C@H]12` is -6.81%; for `CCN1C[C@@H]2[C@@H](OC)CCN(S(=O)(=O)c3cccnc3)[C@@H]2C1` it is -10.5%. In the case of `CO[C@@H]1CCN(S(=O)(=O)c2cccnc2)[C@@H]2CN(CC3CC3)C[C@@H]21`, the cytotoxicity at 70.5 h was -8.38%. The figure for `Cc1ccc(CN2CCOC3(COCCN(C(C)C)C3)C2)o1` (stereo not drawn) is -12.3%; for `Cc1ccc(CN2CCCn3nnc(COCCN(C)C)c3C2)s1` it is -16%.

Turning to `Cn1cccc1C(=O)NCc1cn2c(n1)CN(Cc1ccccn1)CC2`, the cytotoxicity at 70.5 h was -13.2%.
